{"source": "PubChem BioAssay AID1259407", "about": "(Chemical Carcinogenesis Research Information System (CCRIS), 2018)", "system": "CCRIS mutagenicity, Ames/micronucleus/aberration tests", "assay": "CCRIS mutagenicity studies", "conditions": "Test System: AMES SALMONELLA TYPHIMURIUM, Method: PREINCUBATION", "key": {"[1]": {"conditions": "Strain/Indicator: TA98, Metabolic Activation: NONE"}, "[2]": {"conditions": "Strain/Indicator: TA100, Metabolic Activation: NONE"}, "[3]": {"conditions": "Strain/Indicator: TA1535, Metabolic Activation: NONE"}}, "note": "Active and inactive are the calls of the source. How the calls were made is not given here.", "data": [{"compound": "Oc1c(Br)c(Br)c(Br)c(Br)c1Br", "values": [{"measurement": "mutagenic call", "setting": "Strain/Indicator: TA98, Metabolic Activation: HAMSTER, LIVER, S-9, AROCLOR 1254 (10%)", "result": "inactive; negative"}, {"measurement": "mutagenic call", "setting": "[1]", "result": "inactive; negative"}, {"measurement": "mutagenic call", "setting": "Strain/Indicator: TA98, Metabolic Activation: RAT, LIVER, S-9, AROCLOR 1254 (10%)", "result": "inactive; negative"}, {"measurement": "mutagenic call", "setting": "Strain/Indicator: TA100, Metabolic Activation: HAMSTER, LIVER, S-9, AROCLOR 1254 (10%)", "result": "inactive; negative"}, {"measurement": "mutagenic call", "setting": "[2]", "result": "inactive; negative"}, {"measurement": "mutagenic call", "setting": "Strain/Indicator: TA100, Metabolic Activation: RAT, LIVER, S-9, AROCLOR 1254 (10%)", "result": "inactive; negative"}, {"measurement": "mutagenic call", "setting": "Strain/Indicator: TA1535, Metabolic Activation: HAMSTER, LIVER, S-9, AROCLOR 1254 (10%)", "result": "inactive; negative"}, {"measurement": "mutagenic call", "setting": "[3]", "result": "inactive; negative"}, {"measurement": "mutagenic call", "setting": "Strain/Indicator: TA1535, Metabolic Activation: RAT, LIVER, S-9, AROCLOR 1254 (10%)", "result": "inactive; negative"}, {"measurement": "mutagenic call", "setting": "Strain/Indicator: TA1537, Metabolic Activation: HAMSTER, LIVER, S-9, AROCLOR 1254 (10%)", "result": "inactive; negative"}, {"measurement": "mutagenic call", "setting": "Strain/Indicator: TA1537, Metabolic Activation: NONE", "result": "inactive; negative"}, {"measurement": "mutagenic call", "setting": "Strain/Indicator: TA1537, Metabolic Activation: RAT, LIVER, S-9, AROCLOR 1254 (10%)", "result": "inactive; negative"}]}, {"compound": "C=CCNC(N)=S", "values": [{"measurement": "mutagenic call", "setting": "Strain/Indicator: TA97, Metabolic Activation: HAMSTER, LIVER, S-9, AROCLOR 1254 (10 OR 30%)", "result": "inactive; negative"}, {"measurement": "mutagenic call", "setting": "Strain/Indicator: TA97, Metabolic Activation: NONE", "result": "inactive; negative"}, {"measurement": "mutagenic call", "setting": "Strain/Indicator: TA97, Metabolic Activation: RAT, LIVER, S-9, AROCLOR 1254 (10 OR 30%)", "result": "inactive; negative"}, {"measurement": "mutagenic call", "setting": "Strain/Indicator: TA98, Metabolic Activation: HAMSTER, LIVER, S-9, AROCLOR 1254 (10 OR 30%)", "result": "inactive; negative"}, {"measurement": "mutagenic call", "setting": "[1]", "result": "inactive; negative"}, {"measurement": "mutagenic call", "setting": "Strain/Indicator: TA98, Metabolic Activation: RAT, LIVER, S-9, AROCLOR 1254 (10 OR 30%)", "result": "inactive; negative"}, {"measurement": "mutagenic call", "setting": "Strain/Indicator: TA100, Metabolic Activation: HAMSTER, LIVER, S-9, AROCLOR 1254 (10 OR 30%)", "result": "inactive; negative"}, {"measurement": "mutagenic call", "setting": "[2]", "result": "inactive; negative"}, {"measurement": "mutagenic call", "setting": "Strain/Indicator: TA100, Metabolic Activation: RAT, LIVER, S-9, AROCLOR 1254 (10 OR 30%)", "result": "inactive; negative"}, {"measurement": "mutagenic call", "setting": "Strain/Indicator: TA1535, Metabolic Activation: HAMSTER, LIVER, S-9, AROCLOR 1254 (10 OR 30%)", "result": "inactive; negative"}, {"measurement": "mutagenic call", "setting": "[3]", "result": "inactive; negative"}, {"measurement": "mutagenic call", "setting": "Strain/Indicator: TA1535, Metabolic Activation: RAT, LIVER, S-9, AROCLOR 1254 (10 OR 30%)", "result": "inactive; negative"}]}, {"compound": "Cc1cc2ccccc2c2cc3c(cc12)C=C[C@H](O)[C@H]3O", "values": [{"measurement": "mutagenic call", "setting": "Strain/Indicator: TA100, Metabolic Activation: RAT, LIVER, S-9, AROCLOR 1254", "result": "active; positive"}]}]}
